Reference: paper PMC5218480 (PLoS ONE, 2017)

System: MV-4-11 cells
Assay: Gene expression microarray analysis (Affymetrix PrimeView) and GSEA
Assay type: cell-based, human
Set-up: RFU PODN (11730768_x_at) / Fold change /veh PODN (11730768_x_at) / RFU LINC00158 (11744669_a_at) / Fold change /veh LINC00158 (11744669_a_at) / RFU DUSP10 (11751237_a_at) / Fold change /veh DUSP10 (11751237_a_at) / RFU ID3 (11757404_x_at) / Fold change /veh ID3 (11757404_x_at) / RFU PLEKHG5 (11737974_s_at) / Fold change /veh PLEKHG5 (11737974_s_at) / RFU LRRC4B (11730491_at) / Fold change /veh LRRC4B (11730491_at) / RFU GIMAP4 (11747438_a_at) / Fold change /veh GIMAP4 (11747438_a_at) / RFU KRT8 (11758183_x_at) / Fold change /veh KRT8 (11758183_x_at) / RFU CNN1 (11734310_a_at) / Fold change /veh CNN1 (11734310_a_at) / RFU VPS37D (11726825_at) / Fold change /veh VPS37D (11726825_at) / RFU C10orf10 (11716522_x_at) / Fold change /veh C10orf10 (11716522_x_at) / RFU KIR2DL2 /// KIR2DL4 /// KIR2DL5A /// KIR2DL5B /// KIR2DS1 /// KIR2DS2 /// KIR2DS3 /// KIR2DS4 /// KIR3DL3 /// KIR3DL3 /// KIR3DS1 (11738374_at) / Fold change /veh KIR2DL2 /// KIR2DL4 /// KIR2DL5A /// KIR2DL5B /// KIR2DS1 /// KIR2DS2 /// KIR2DS3 /// KIR2DS4 /// KIR3DL3 /// KIR3DL3 /// KIR3DS1 (11738374_at) / RFU C1QL1 (11718748_at) / Fold change /veh C1QL1 (11718748_at) / RFU TMPRSS4 (11747572_a_at) / Fold change /veh TMPRSS4 (11747572_a_at) / RFU HAMP (11756126_x_at) / Fold change /veh HAMP (11756126_x_at) / RFU RNFT2 (11725882_a_at) / Fold change /veh RNFT2 (11725882_a_at) / RFU NR4A2 (11747474_a_at) / Fold change /veh NR4A2 (11747474_a_at) / RFU ABCC12 (11746883_a_at) / Fold change /veh ABCC12 (11746883_a_at) / RFU TMEM136 (11760407_x_at) / Fold change /veh TMEM136 (11760407_x_at) / RFU CLDN22 /// WWC2 (11732394_at) / Fold change /veh CLDN22 /// WWC2 (11732394_at) / RFU HLA-DPB1 (11760878_x_at) / Fold change /veh HLA-DPB1 (11760878_x_at) / RFU SPINT1 (11716480_a_at) / Fold change /veh SPINT1 (11716480_a_at) / RFU GAP43 (11754022_s_at) / Fold change /veh GAP43 (11754022_s_at) / RFU A4GNT (11735810_at) / Fold change /veh A4GNT (11735810_at) / RFU PRB3 (11715151_x_at) / Fold change /veh PRB3 (11715151_x_at) / RFU TUBB4B (11761932_at) / Fold change /veh TUBB4B (11761932_at) / RFU CAPN14 (11732068_a_at) / Fold change /veh CAPN14 (11732068_a_at) / RFU TMCC2 (11721928_a_at) / Fold change /veh TMCC2 (11721928_a_at) / RFU IRGQ (11745062_a_at) / Fold change /veh IRGQ (11745062_a_at) / RFU FAM174B (11720279_a_at) / Fold change /veh FAM174B (11720279_a_at) / RFU TMPRSS4 (11748680_a_at) / Fold change /veh TMPRSS4 (11748680_a_at) / RFU FAM212B (11763350_a_at) / Fold change /veh FAM212B (11763350_a_at) / RFU PLEKHG5 (11743358_a_at) / Fold change /veh PLEKHG5 (11743358_a_at) / RFU ZSCAN30 (11745921_a_at) / Fold change /veh ZSCAN30 (11745921_a_at) / RFU CMKLR1 (11741424_a_at) / Fold change /veh CMKLR1 (11741424_a_at) / RFU LOC101060620 /// MAPK8IP1 (11723275_at) / Fold change /veh LOC101060620 /// MAPK8IP1 (11723275_at) / RFU SPTSSB (11747773_x_at) / Fold change /veh SPTSSB (11747773_x_at) / RFU PRSS12 (11739890_at) / Fold change /veh PRSS12 (11739890_at) / RFU BIN1 (11741810_x_at) / Fold change /veh BIN1 (11741810_x_at) / RFU WNT11 (11732464_a_at) / Fold change /veh WNT11 (11732464_a_at) / RFU C10orf10 (11716521_a_at) / Fold change /veh C10orf10 (11716521_a_at) / RFU C5orf56 (11738089_at) / Fold change /veh C5orf56 (11738089_at) / RFU CYB561 (11721691_x_at) / Fold change /veh CYB561 (11721691_x_at) / RFU ANKRD19P (11752326_a_at) / Fold change /veh ANKRD19P (11752326_a_at) / RFU OR2T12 /// OR2T33 /// OR2T8 (11738714_s_at) / Fold change /veh OR2T12 /// OR2T33 /// OR2T8 (11738714_s_at) / RFU VCAN (11748164_a_at) / Fold change /veh VCAN (11748164_a_at) / RFU JSRP1 (11732532_at) / Fold change /veh JSRP1 (11732532_at) / RFU KRTAP10-11 (11738290_x_at) / Fold change /veh KRTAP10-11 (11738290_x_at) / RFU MYO3A (11730013_a_at) / Fold change /veh MYO3A (11730013_a_at) / RFU EBF3 (11725865_a_at) / Fold change /veh EBF3 (11725865_a_at) / RFU CAMK2N1 (11719241_x_at) / Fold change /veh CAMK2N1 (11719241_x_at) / RFU C5orf56 (11738088_a_at) / Fold change /veh C5orf56 (11738088_a_at) / RFU OLFML3 (11715873_a_at) / Fold change /veh OLFML3 (11715873_a_at) / RFU LOC100653217 /// NTM (11731650_a_at) / Fold change /veh LOC100653217 /// NTM (11731650_a_at) / RFU MAPK11 (11762145_a_at) / Fold change /veh MAPK11 (11762145_a_at) / RFU FIZ1 (11724087_x_at) / Fold change /veh FIZ1 (11724087_x_at) / RFU OASL (11726364_x_at) / Fold change /veh OASL (11726364_x_at) / RFU SOX15 (11748057_x_at) / Fold change /veh SOX15 (11748057_x_at) / RFU CD79A (11719716_a_at) / Fold change /veh CD79A (11719716_a_at) / RFU HIST1H1D (11736915_at) / Fold change /veh HIST1H1D (11736915_at) / RFU CASKIN2 (11723855_a_at) / Fold change /veh CASKIN2 (11723855_a_at) / RFU LOC730098 (11760151_x_at) / Fold change /veh LOC730098 (11760151_x_at) / RFU OR4N2 (11742367_at) / Fold change /veh OR4N2 (11742367_at) / RFU PRRT2 (11749266_a_at) / Fold change /veh PRRT2 (11749266_a_at) / RFU SNX32 (11753110_a_at) / Fold change /veh SNX32 (11753110_a_at) / RFU CDHR5 (11726645_a_at) / Fold change /veh CDHR5 (11726645_a_at) / RFU RCAN1 (11760418_a_at) / Fold change /veh RCAN1 (11760418_a_at) / RFU FAM167A (11723789_a_at) / Fold change /veh FAM167A (11723789_a_at) / RFU FAM26E (11764081_at) / Fold change /veh FAM26E (11764081_at) / RFU ISYNA1 (11749810_s_at) / Fold change /veh ISYNA1 (11749810_s_at) / RFU ACY1 (11761880_at) / Fold change /veh ACY1 (11761880_at) / RFU 11764098_at / Fold change /veh 11764098_at / RFU SAMD14 (11745864_x_at) / Fold change /veh SAMD14 (11745864_x_at) / RFU NPB (11741838_a_at) / Fold change /veh NPB (11741838_a_at) / RFU TMPRSS6 (11731388_a_at) / Fold change /veh TMPRSS6 (11731388_a_at) / RFU KRTAP10-2 (11738614_at) / Fold change /veh KRTAP10-2 (11738614_at) / RFU ARHGAP8 /// PRR5-ARHGAP8 (11727945_x_at) / Fold change /veh ARHGAP8 /// PRR5-ARHGAP8 (11727945_x_at) / RFU KRTAP5-7 /// NADSYN1 (11734609_at) / Fold change /veh KRTAP5-7 /// NADSYN1 (11734609_at) / RFU RASL12 (11751679_a_at) / Fold change /veh RASL12 (11751679_a_at) / RFU CDKN2B (11736163_a_at) / Fold change /veh CDKN2B (11736163_a_at) / RFU PRF1 (11729649_at) / Fold change /veh PRF1 (11729649_at) / RFU, ZNF638 /// ZNF638-IT1 / Fold change vs veh, ZNF638 /// ZNF638-IT1 / RFU, PANK3 / Fold change vs veh, PANK3 / RFU, SH3YL1 / Fold change vs veh, SH3YL1 / RFU, ZEB2 / Fold change vs veh, ZEB2 / RFU, NRIP1 / Fold change vs veh, NRIP1 / RFU, PTTG1IP / Fold change vs veh, PTTG1IP / RFU, CAPN2 / Fold change vs veh, CAPN2 / RFU, MED14 / Fold change vs veh, MED14 / RFU, SNORA58 / Fold change vs veh, SNORA58 / RFU, C1orf63 / Fold change vs veh, C1orf63 / RFU, LRRFIP1 / Fold change vs veh, LRRFIP1 / RFU, NDUFAF7 / Fold change vs veh, NDUFAF7 / RFU, SLC12A2 / Fold change vs veh, SLC12A2 / RFU, IBTK / Fold change vs veh, IBTK / RFU, ESF1 / Fold change vs veh, ESF1 / Fold change vs veh, TMEM50B / RFU, TAOK1 / Fold change vs veh, TAOK1 / RFU, ACBD3 / Fold change vs veh, ACBD3 / RFU, TMA16 / Fold change vs veh, TMA16 / RFU, RWDD3 / Fold change vs veh, RWDD3 / RFU, BCAT1 / Fold change vs veh, BCAT1 / RFU, EDEM3 / Fold change vs veh, EDEM3 / RFU, TMEM33 / Fold change vs veh, TMEM33 / RFU, WDR75 / Fold change vs veh, WDR75 / RFU, AHCTF1 / Fold change vs veh, AHCTF1 / RFU, TFRC / Fold change vs veh, TFRC / RFU, ZDHHC17 / Fold change vs veh, ZDHHC17 / RFU, NOM1 / Fold change vs veh, NOM1 / RFU, ARL8B / Fold change vs veh, ARL8B / RFU, ZBTB11 / Fold change vs veh, ZBTB11 / RFU, TAMM41 / Fold change vs veh, TAMM41 / RFU, KIAA1704 /// LOC100996395 / Fold change vs veh, KIAA1704 /// LOC100996395 / RFU, ING1 / Fold change vs veh, ING1 / RFU, TRMT61B / Fold change vs veh, TRMT61B / RFU, FUBP3 / Fold change vs veh, FUBP3 / RFU, TP53 / Fold change vs veh, TP53 / RFU, TNKS2 / Fold change vs veh, TNKS2 / RFU, ZFP14 / Fold change vs veh, ZFP14 / RFU, ACTR2 / Fold change vs veh, ACTR2 / RFU, PPP3R1 / Fold change vs veh, PPP3R1 / RFU, PIK3R1 / Fold change vs veh, PIK3R1 / RFU, HNRNPA1 / Fold change vs veh, HNRNPA1 / RFU, RNF170 / Fold change vs veh, RNF170 / RFU, ZNF28 / Fold change vs veh, ZNF28 / RFU, RNGTT / Fold change vs veh, RNGTT / RFU, OGT / Fold change vs veh, OGT / RFU, BRD1 / Fold change vs veh, BRD1 / RFU, MARS / Fold change vs veh, MARS / RFU, ZNF655 / Fold change vs veh, ZNF655 / RFU, FAHD1 / Fold change vs veh, FAHD1 / RFU, BDP1 / Fold change vs veh, BDP1 / RFU, LRRCC1 / Fold change vs veh, LRRCC1 / RFU, ARID1A / Fold change vs veh, ARID1A / RFU, ZNF146 / Fold change vs veh, ZNF146 / RFU, ZNF330 / Fold change vs veh, ZNF330 / RFU, GPN3 / Fold change vs veh, GPN3 / RFU, C9orf123 / Fold change vs veh, C9orf123 / RFU, N4BP2L2 / Fold change vs veh, N4BP2L2 / RFU, ARFIP1 / Fold change vs veh, ARFIP1 / RFU, FAM179B / Fold change vs veh, FAM179B / RFU, BCL10 / Fold change vs veh, BCL10 / RFU, UHRF1BP1L / Fold change vs veh, UHRF1BP1L / RFU, BET1 / Fold change vs veh, BET1 / RFU, CNOT2 / Fold change vs veh, CNOT2 / RFU, ZNF268 / Fold change vs veh, ZNF268 / Fold change vs veh, ZNF507 / RFU, DGCR2 / Fold change vs veh, DGCR2 / RFU, WDSUB1 / Fold change vs veh, WDSUB1 / Fold change vs veh, HSP90B1 /// MIR3652 / RFU, ADSS / Fold change vs veh, ADSS / RFU, GK / Fold change vs veh, GK / RFU, ZNF148 / Fold change vs veh, ZNF148 / RFU, TAF9 / Fold change vs veh, TAF9 / RFU, SLC1A5 / Fold change vs veh, SLC1A5 / RFU, SLMO2 / Fold change vs veh, SLMO2 / RFU, ABCC4 / Fold change vs veh, ABCC4 / RFU, LOC101060439 /// RAP1B / Fold change vs veh, LOC101060439 /// RAP1B / RFU, RFX7 / Fold change vs veh, RFX7 / RFU, GTPBP10 / Fold change vs veh, GTPBP10 / RFU, CNEP1R1 / Fold change vs veh, CNEP1R1 / RFU, BIVM-ERCC5 /// ERCC5 / Fold change vs veh, BIVM-ERCC5 /// ERCC5 / RFU, ILF3 / Fold change vs veh, ILF3 / RFU 11762660_at / Fold change /veh 11762660_at / RFU VCAN (11757783_s_at) / Fold change /veh VCAN (11757783_s_at) / RFU DDX43 (11728927_at) / Fold change /veh DDX43 (11728927_at) / RFU KRT8 (11758188_x_at) / Fold change /veh KRT8 (11758188_x_at) / RFU NKD1 (11759106_at) / Fold change /veh NKD1 (11759106_at) / RFU SRD5A1 (11742802_a_at) / Fold change /veh SRD5A1 (11742802_a_at) / RFU TPSAB1 /// TPSB2 (11721975_s_at) / Fold change /veh TPSAB1 /// TPSB2 (11721975_s_at) / RFU GSTM3 (11746129_a_at) / Fold change /veh GSTM3 (11746129_a_at) / RFU IL23R (11737362_x_at) / Fold change /veh IL23R (11737362_x_at) / RFU TMEM51 (11727254_a_at) / Fold change /veh TMEM51 (11727254_a_at) / RFU PIWIL2 (11732686_x_at) / Fold change /veh PIWIL2 (11732686_x_at) / RFU ORM1 (11744905_x_at) / Fold change /veh ORM1 (11744905_x_at) / RFU CCDC152 (11743942_at) / Fold change /veh CCDC152 (11743942_at) / RFU ECM1 (11717891_a_at) / Fold change /veh ECM1 (11717891_a_at) / RFU IL23R (11748794_a_at) / Fold change /veh IL23R (11748794_a_at) / RFU TNFAIP8L3 (11732012_x_at) / Fold change /veh TNFAIP8L3 (11732012_x_at) / RFU MBOAT4 (11741988_at) / Fold change /veh MBOAT4 (11741988_at) / RFU 11764193_at / Fold change /veh 11764193_at / RFU TMEM53 (11763286_at) / Fold change /veh TMEM53 (11763286_at) / RFU MAGEB2 (11727129_at) / Fold change /veh MAGEB2 (11727129_at) / RFU TMEM200A (11744735_a_at) / Fold change /veh TMEM200A (11744735_a_at) / RFU CCDC152 (11751479_a_at) / Fold change /veh CCDC152 (11751479_a_at) / RFU FAM211A (11726209_a_at) / Fold change /veh FAM211A (11726209_a_at) / RFU RGS16 (11746705_a_at) / Fold change /veh RGS16 (11746705_a_at) / RFU VCAN (11755009_s_at) / Fold change /veh VCAN (11755009_s_at) / RFU RHOB (11743442_s_at) / Fold change /veh RHOB (11743442_s_at) / RFU RGS16 (11720943_a_at) / Fold change /veh RGS16 (11720943_a_at) / RFU RGS16 (11720944_at) / Fold change /veh RGS16 (11720944_at) / RFU, VPS4B / Fold change vs veh, VPS4B / RFU, CREB1 / Fold change vs veh, CREB1 / RFU, DNAJC13 / Fold change vs veh, DNAJC13 / RFU, GNAQ / Fold change vs veh, GNAQ / RFU, CDK5R1 / Fold change vs veh, CDK5R1 / RFU, ZRANB3 / Fold change vs veh, ZRANB3 / RFU, CUL4A / Fold change vs veh, CUL4A / RFU, CCNY / Fold change vs veh, CCNY / RFU, UFL1 / Fold change vs veh, UFL1 / RFU, COG3 / Fold change vs veh, COG3 / RFU, DIAPH2 / Fold change vs veh, DIAPH2 / RFU, SKA2 / Fold change vs veh, SKA2 / RFU, AFF3 / Fold change vs veh, AFF3 / RFU, LMF1 / Fold change vs veh, LMF1 / RFU, IPO11 / Fold change vs veh, IPO11 / RFU, DFFB / Fold change vs veh, DFFB / RFU, FOXP1 / Fold change vs veh, FOXP1 / RFU, CARD8 / Fold change vs veh, CARD8 / RFU, STRN3 / Fold change vs veh, STRN3 / RFU, ADK / Fold change vs veh, ADK / RFU, RASSF2 / Fold change vs veh, RASSF2 / RFU, WIPF1 / Fold change vs veh, WIPF1 / RFU, LARP1B / Fold change vs veh, LARP1B / RFU, RASA1 / Fold change vs veh, RASA1 / RFU, RB1 / Fold change vs veh, RB1 / RFU, PPFIA1 / Fold change vs veh, PPFIA1 / RFU, MAT2A / Fold change vs veh, MAT2A / RFU, CCT5 / Fold change vs veh, CCT5 / RFU, WDR92 / Fold change vs veh, WDR92 / RFU, CUX1 / Fold change vs veh, CUX1 / RFU, TTC7A / Fold change vs veh, TTC7A / RFU, TMEM135 / Fold change vs veh, TMEM135 / RFU, DEPTOR / Fold change vs veh, DEPTOR / RFU, CPM / Fold change vs veh, CPM / RFU, DNAJB6 / Fold change vs veh, DNAJB6 / RFU, CACNA2D3 / Fold change vs veh, CACNA2D3 / RFU, DTX4 / Fold change vs veh, DTX4 / RFU, TFCP2 / Fold change vs veh, TFCP2 / RFU, GMCL1 /// GMCL1P1 / Fold change vs veh, GMCL1 /// GMCL1P1 / RFU, AEBP2 / Fold change vs veh, AEBP2 / RFU, SNHG1 /// SNORD22 /// SNORD25 /// SNORD26 /// SNORD27 /// SNORD28 /// SNORD29 /// SNORD31 / Fold change vs veh, SNHG1 /// SNORD22 /// SNORD25 /// SNORD26 /// SNORD27 /// SNORD28 /// SNORD29 /// SNORD31 / Fold change (Aza/veh), C12orf56 (ProbeSet 11735607_a_at) / Fold change (ACY-1035/veh), C12orf56 (ProbeSet 11735607_a_at) / Fold change (Aza/veh), FGFR1OP (ProbeSet 11751329_s_at) / Fold change (ACY-1035/veh), FGFR1OP (ProbeSet 11751329_s_at) / Fold change (Aza/veh), VPS36 (ProbeSet 11739960_a_at) / Fold change (ACY-1035/veh), VPS36 (ProbeSet 11739960_a_at) / RFU SYPL1 (11715823_x_at) / Fold change /veh SYPL1 (11715823_x_at) / RFU IGFBP7 (11715501_s_at) / Fold change /veh IGFBP7 (11715501_s_at) / RFU REEP3 (11722064_at) / Fold change /veh REEP3 (11722064_at) / RFU IGLL1 (11728026_x_at) / Fold change /veh IGLL1 (11728026_x_at): dose or concentration left out as unconfirmed
Conditions: MV-4-11 cells, 48 hours

Nc1ccc(-c2cccs2)cc1NC(=O)c1ccc2c(c1)cc(C1CC1)n2CCN1CCOCC1 [ACY-1035]
Fold change /veh SOX15 (11748057_x_at): 0.91
